In PMC7023430, “4-Aminobenzoic Acid Derivatives: Converting Folate Precursor to Antimicrobial and Cytotoxic Agents” (Biomolecules, 2019):
Converted amounts (≈) assume the structure as drawn. Where two headings read alike, the source gives them in different places.

Assays:
Candida krusei E28 = experiment: Antifungal microdilution broth method, C. krusei; assay type: cell-based; conditions: Pichia kudriavzevii
Procedure: (§1) The antifungal properties were evaluated against five yeast strains, namely: Candida albicans ATCC 44859, Candida tropicalis 156, Candida krusei […], Candida glabrata 20/I, Trichosporon […] 1188 and three strains of filamentous fungi: Aspergillus fumigatus 231, Lichtheimia corymbifera 272, and Trichophyton interdigitale 445. A microdilution broth method was performed according to EUCAST II, III instructions with slight modifications. Briefly, tested compounds were dissolved in DMSO and diluted in a twofold manner with RPMI-1640 medium with L-glutamine, supplemented with 2% glucose (w/v) and buffered to pH 7.0 with 3 morpholinopropane-1-sulfonic acid (all components were purchased from Sigma-Aldrich, USA). […] Positive controls consisted of test microbe solely, while negative controls consisted of medium and DMSO. Internal quality control was included too. Visual inspection was used for MIC endpoints evaluation. The experiments were conducted in duplicates. For the results to be valid, the difference in MIC determined from two parallel measurements must not be greater than one step on the dilution scale. PABA and triazole antimycotic drug fluconazole were involved as the reference compounds.

[1] = test system: methicillin-resistant Staphylococcus aureus ATCC 43300, CCM 4750 (MRSA); experiment: Antibacterial microdilution broth method, MRSA; assay type: cell-based; conditions: Staphylococcus aureus
[2] = test system: Aspergillus fumigatus 231; experiment: Antifungal microdilution broth method, A. fumigatus; assay type: cell-based
Procedure: as §1

[3] = test system: Staphylococcus aureus ATCC 29213, CCM 4223; experiment: Antibacterial microdilution broth method, S. aureus; assay type: cell-based
[4] = test system: Mycobacterium tuberculosis H37Rv (331/88); experiment: Antimycobacterial micromethod in Šula's medium, M. tuberculosis; assay type: cell-based
[5] = test system: E. coli, Listeria monocytogenes and Salmonella enteritidis; parameters: method as in PMID 7730199; conditions: strains distinct from this study; cited from earlier work
[6] = test system: four Gram-positive and four Gram-negative strains; experiment: Antibacterial activity; assay type: cell-based; conditions: statement over the bacterial panel; time not stated; read-out: MIC, antibacterial activity
[7] = test system: Mycobacterium avium 330/88; experiment: Antimycobacterial micromethod in Šula's medium, M. avium; assay type: cell-based
[8] = test system: Candida albicans ATCC 44859; experiment: Antifungal microdilution broth method, C. albicans; assay type: cell-based
Procedure: as §1

Trichosporon asahii 1188 = experiment: Antifungal microdilution broth method, T. asahii; assay type: cell-based
Procedure: as §1

[9] = test system: Trichophyton interdigitale 445; experiment: Antifungal microdilution broth method, T. interdigitale; assay type: cell-based
Procedure: as §1

[10] = test system: Lichtheimia corymbifera 272; experiment: Antifungal microdilution broth method, L. corymbifera; assay type: cell-based
Procedure: as §1

eight fungal strains = experiment: Antifungal activity; assay type: cell-based; conditions: statement over the fungal panel; time not stated
Procedure: as §1

[11] = test system: Mycobacterium kansasii 235/80; experiment: Antimycobacterial micromethod in Šula's medium, M. kansasii 235/80; assay type: cell-based
[12] = test system: Staphylococcus epidermidis H 6966/08; experiment: Antibacterial microdilution broth method, S. epidermidis; assay type: cell-based; conditions: Staphylococcus epidermidis, H6966/08, S. epidermidis
[13] = test system: Klebsiella pneumoniae D 11750/08
[14] = test system: Pseudomonas aeruginosa ATCC 27853, CCM 3955; experiment: Antibacterial microdilution broth method, P. aeruginosa; assay type: cell-based; conditions: Pseudomonas aeruginosa, P. aeruginosa
[15] = test system: Escherichia coli ATCC 25922, CCM 3954; experiment: Antibacterial microdilution broth method, E. coli; assay type: cell-based; conditions: Escherichia coli
[16] = test system: M. kansasii 6509/96 (clinical isolate); experiment: Antimycobacterial micromethod in Šula's medium, M. kansasii 6509/96; assay type: cell-based; conditions: Mycobacterium kansasii
Candida tropicalis 156 = experiment: Antifungal microdilution broth method, C. tropicalis; assay type: cell-based
Procedure: as §1

[17] = test system: Enterococcus faecalis ATCC 29212, CCM 4224; experiment: Antibacterial microdilution broth method, E. faecalis; assay type: cell-based; conditions: Enterococcus faecalis
phytopathogenic fungi = test system: phytopathogenic fungi; parameters: method as in PMID 29283262; conditions: read-out: IC50 of PABA, phytopathogenic fungi; cited from earlier work
Candida glabrata 20/I = experiment: Antifungal microdilution broth method, C. glabrata; assay type: cell-based; conditions: Nakaseomyces glabratus
Procedure: as §1

[18] = test system: ESBL-positive Klebsiella pneumoniae J 14368/08

For `Nc1ccc(C(=O)O)cc1` [PABA 1, 4-aminobenzoic acid], the MIC (Candida krusei E28; 24 h, read-out: MIC CK 24 h) was > 500 µM, the MIC (Candida krusei E28; 48 h, read-out: MIC CK 48 h) was > 500 µM and the MIC ([1]; 24 h incubation, read-out: MIC MRSA 24 h) was > 500 µM. The MIC ([1]; 48 h incubation, read-out: MIC MRSA 48 h) was > 500 µM, the MIC ([2]; 24 h, read-out: MIC AF 24 h) was > 500 µM and the MIC ([2]; 48 h, read-out: MIC AF 48 h) was > 500 µM. The MIC ([3]; 24 h incubation, read-out: MIC SA 24 h) was > 500 µM, the MIC ([3]; 48 h incubation, read-out: MIC SA 48 h) was > 500 µM and the MIC ([4]; 336 h, 14 days incubation at 37 °C, read-out: MIC Mtb. 331/88 14 d) was > 1000 µM. The MIC ([4]; 504 h, 21 days incubation at 37 °C, read-out: MIC Mtb. 331/88 21 d) was > 1000 µM, the “MIC of PABA” value [5] was 9000 to 24000 µM and the MIC [6] was > 500 µM. For the same compound, the MIC ([7]; 330/88, 336 h, 14 days incubation at 37 °C, read-out: MIC M. avium 330/88 14 d) was > 1000 µM, the MIC ([7]; 330/88, 504 h, 21 days incubation at 37 °C, read-out: MIC M. avium 330/88 21 d) was > 1000 µM and the MIC ([8]; ATCC44859, 24 h, read-out: MIC CA 24 h) was > 500 µM. For the same compound, the MIC ([8]; ATCC44859, 48 h, read-out: MIC CA 48 h) was > 500 µM, the MIC (Trichosporon asahii 1188; 24 h, read-out: MIC TA 24 h) was > 500 µM and the MIC (Trichosporon asahii 1188; 48 h, read-out: MIC TA 48 h) was > 500 µM. The MIC ([9]; 72 h, read-out: MIC TI 72 h) was > 500 µM, the MIC ([9]; 120 h, read-out: MIC TI 120 h) was > 500 µM and the MIC ([10]; 24 h, read-out: MIC LC 24 h) was > 500 µM. For the same compound, the MIC ([10]; 48 h, read-out: MIC LC 48 h) was > 500 µM, the MIC (eight fungal strains) was > 500 µM and the MIC ([11]; 235/80, 168 h, 7 days incubation at 37 °C, read-out: MIC M. kansasii 235/80 7 d) was 1000 µM (≈ 137 µg/mL). The MIC ([11]; 235/80, 336 h, 14 days incubation at 37 °C, read-out: MIC M. kansasii 235/80 14 d) was > 1000 µM, the MIC ([11]; 235/80, 504 h, 21 days incubation at 37 °C, read-out: MIC M. kansasii 235/80 21 d) was > 1000 µM and the MIC ([12]; 24 h incubation, read-out: MIC SE 24 h) was > 500 µM. For the same compound, the MIC ([12]; 48 h incubation, read-out: MIC SE 48 h) was > 500 µM, the “MIC KP 24 h” value ([13]; 24 h) was >500 µM and the “MIC KP 48 h” value ([13]; 48 h) was >500 µM. For the same compound, the MIC ([14]; 24 h incubation, read-out: MIC PA 24 h) was > 500 µM, the MIC ([14]; 48 h incubation, read-out: MIC PA 48 h) was > 500 µM and the MIC ([15]; 24 h incubation, read-out: MIC EC 24 h) was > 500 µM. For the same compound, the MIC ([15]; 48 h incubation, read-out: MIC EC 48 h) was > 500 µM, the MIC ([16]; 168 h, 7 days incubation at 37 °C, read-out: MIC M. kansasii 6509/96 7 d) was 1000 µM (≈ 137 µg/mL) and the MIC ([16]; 336 h, 14 days incubation at 37 °C, read-out: MIC M. kansasii 6509/96 14 d) was 1000 µM (≈ 137 µg/mL). The MIC ([16]; 504 h, 21 days incubation at 37 °C, read-out: MIC M. kansasii 6509/96 21 d) was 1000 µM (≈ 137 µg/mL), the MIC (Candida tropicalis 156; 24 h, read-out: MIC CT 24 h) was > 500 µM and the MIC (Candida tropicalis 156; 48 h, read-out: MIC CT 48 h) was > 500 µM. For the same compound, the MIC ([17]; 24 h incubation, read-out: MIC EF 24 h) was > 500 µM, the MIC ([17]; 48 h incubation, read-out: MIC EF 48 h) was > 500 µM and the IC50 (phytopathogenic fungi) was 1000 to 3000 µM. For the same compound, the MIC (Candida glabrata 20/I; 24 h, read-out: MIC CG 24 h) was > 500 µM, the MIC (Candida glabrata 20/I; 48 h, read-out: MIC CG 48 h) was > 500 µM and the “MIC KP-E 24 h” value ([18]; 24 h) was >500 µM. For the same compound, the “MIC KP-E 48 h” value ([18]; 48 h) was >500 µM.
